# From patent US20200230126A1, “TARGETED THERAPEUTICS” (TARVEDA THERAPEUTICS, INC., priority 2017, published 2020)
# Key:
# Assay type in all cases: physicochemical
# [1] = Head-to-head in-use test, 5% Mannitol dosing solution in IV bag, syringe and IV line with rocking
# Procedure: A head-to-head in-use test of the SDC-TRAP-0063 Sodium 0.9% Sodium Chloride and 5% Mannitol dosing solutions was conducted. This study was intended to directly compare the two based on the specific clinical use direction for each diluent. In this study, the respective IV bags, syringes and IV lines were subjected to a rocking motion during the hold periods to mimic a worst case scenario for agitation of the dosing solution.
# The 5% Mannitol dosing solution was tested in a syringe and IV line as designed for use in the clinic with the addition of continuous rocking to simulate a worst case for agitation of the samples (Table 6). This dosing solution was tested at the limits of intended concentrations of 3 mg/mL and 12 mg/mL of SDC-TRAP-0063 Sodium and with a 2 hour hold period in the IV bag, a 6 hour hold period in the syringe and IV line and a 2-hour simulated infusion to exceed the planned clinical timeframes.
# [2] = Solubility at various pH in 5% Mannitol (HCl addition, about 24 hours equilibration, 0.2 μm filtration); set-up: key to appearance: Conforms = clear and essentially free of visible particles
# Procedure: (§1) Experiments were performed to assess the solubility of SDC-TRAP-0063 Sodium as a function of varying pH.
# [3] = Solubility at various pH in 0.9% Sodium Chloride (HCl addition, about 24 hours equilibration, 0.2 μm filtration); set-up: key to appearance: Conforms = clear and essentially free of visible particles; conditions: 0.9% Saline
# Procedure: as §1
# [4] = pH of reconstituted solution and dosing solutions
# Procedure: The reconstituted solution of SDC-TRAP-0063 Sodium has a pH of about 10.0. This solution is diluted to the target dose in 5% Mannitol, USP. The pH of the infusion solution depends on the concentration of SDC-TRAP-0063 Sodium in the diluted infusion solution. Across the dose ranges employed in the clinical study protocol, the volume of the diluted infusion solution administered will range from 50 to 500 mL, and the pH will range from 8.1 to 9.6. In order to reduce the potential risks of injection site pain and/or damage to the venous endothelium during IV administration, a central venous access line is used for administration of the diluted SDC-TRAP-0063 Sodium.
# A new, more robust and patient-friendly formulation of dosing solution was developed. During this development, it was established that the pH of the dosing solution is driven by the concentration of SDC-TRAP-0063 Sodium and increasing the SDC-TRAP-0063 Sodium concentration allows better control of the solubility and pH of dosing solutions.
# It is believed that a common ion effect is decreasing the solubility of SDC-TRAP-0063 Sodium in 0.9% Sodium Chloride solution.
# [5] = Particulate formation in dosing solutions using 0.9% Sodium Chloride, 5% Mannitol and 5% Dextrose adjusted to the low USP pH limits, with rocking (appearance, pH, HPLC recovery); set-up: key to appearance: Conforms = clear and essentially free of visible particles
# Procedure: A study was conducted with 0.6 mg/mL and 2.4 mg/mL solutions of SDC-TRAP-0063 Sodium using one of three diluents; 0.9% Sodium Chloride as a positive control, and 5% Dextrose and 5% Mannitol as potential new diluents (Table 2). Each diluent was prepared at the lower pH limit of USP to test a worst-case scenario for solubility (the starting pH was 4.5 for 0.9% Sodium Chloride and 5% Mannitol and 3.2 for 5% Dextrose). The SDC-TRAP-0063 Sodium dosing solutions were prepared in glass vials and then placed on a rocker. […]
# [6] = 0 molar percent HCl added, pH 9.9
# [7] = 8.1 molar percent HCl added, pH 9.6
# [8] = 14.4 molar percent HCl added, pH 9.1
# [9] = 33.1 molar percent HCl added, pH 8.7
# [10] = 35.5 molar percent HCl added, pH 8.7
smiles,measurement,setting,value
"CCc1c2c(nc3ccc(OC(=O)N4CCC(CCn5ccc6cc(-n7c(O)nnc7-c7cc(C(C)C)c(O)cc7O)ccc65)CC4)cc13)-c1cc([C@@](O)(CC)C(=O)[O-])c(CO)c(=O)n1C2.[Na+] [SDC-TRAP-0063 Sodium, Sodium (S)-2-(2-((4-(2-(5-(3-(2,4-dihydroxy-5-isopropylphenyl)-5-hydroxy-4H-1,2,4-triazol-4-yl)-1H-indol-1-yl)ethyl)piperidine-1-carbonyl)oxy)-12-ethyl-8-(hydroxymethyl)-9-oxo-9,11-dihydroindolizino[1,2-b]quinolin-7-yl)-2-hydroxybutanoate]",precipitation,"[1]; 3 mg/mL and 12 mg/mL, all time points, continuous rocking",no precipitation was observed at any time point
same,Recovery of SDC-TRAP-0063 Sodium (Calculated vs. Initial concentration),"[1]; 3 mg/mL, Bulk solution, 8 hours (6 + 2 infusion)",98.0%
same,Recovery of SDC-TRAP-0063 Sodium (Calculated vs. Initial concentration),"[1]; 3 mg/mL, IV bag, 0 hours",100.0%
same,Recovery of SDC-TRAP-0063 Sodium (Calculated vs. Initial concentration),"[1]; 3 mg/mL, IV bag, 2 hours",102.5%
same,Recovery of SDC-TRAP-0063 Sodium (Calculated vs. Initial concentration),"[1]; 3 mg/mL, IV line (infusion end), 8 hours (6 + 2 infusion)",98.7%
same,Recovery of SDC-TRAP-0063 Sodium (Calculated vs. Initial concentration),"[1]; 3 mg/mL, IV line (infusion start), 6 hours, low volume in syringe, complete sample not obtained",93.5%^1
same,Recovery of SDC-TRAP-0063 Sodium (Calculated vs. Initial concentration),"[1]; 3 mg/mL, IV line, 0 hours",97.2%
same,Recovery of SDC-TRAP-0063 Sodium (Calculated vs. Initial concentration),"[1]; 12 mg/mL, Bulk solution, 8 hours (6 + 2 infusion)",105.4%
same,Recovery of SDC-TRAP-0063 Sodium (Calculated vs. Initial concentration),"[1]; 12 mg/mL, IV bag, 0 hours",100.0%
same,Recovery of SDC-TRAP-0063 Sodium (Calculated vs. Initial concentration),"[1]; 12 mg/mL, IV bag, 2 hours",103.9%
same,Recovery of SDC-TRAP-0063 Sodium (Calculated vs. Initial concentration),"[1]; 12 mg/mL, IV line (infusion end), 8 hours (6 + 2 infusion)",104.3%
same,Recovery of SDC-TRAP-0063 Sodium (Calculated vs. Initial concentration),"[1]; 12 mg/mL, IV line (infusion start), 6 hours",101.6%
same,Recovery of SDC-TRAP-0063 Sodium (Calculated vs. Initial concentration),"[1]; 12 mg/mL, IV line, 0 hours",103.6%
same,appearance,"[2]; 0 molar percent HCl added, pH 10.1",Conforms^2
same,SDC-TRAP-0063 Sodium concentration in the solution,"[2]; 0 molar percent HCl added, pH 10.1, after 24 hours of rocking, starting 23.6 mg/mL",>23.6 (after mg/mL
same,SDC-TRAP-0063 Sodium concentration in the solution,"[2]; 10.5 molar percent HCl added, pH 9.9",>23.5 mg/mL
same,SDC-TRAP-0063 Sodium concentration in the solution,"[2]; 18.2 molar percent HCl added, pH 9.9",>23.3 mg/mL
same,SDC-TRAP-0063 Sodium concentration in the solution,"[2]; 33.1 molar percent HCl added, pH 9.1",20.2 mg/mL
same,SDC-TRAP-0063 Sodium concentration in the solution,"[2]; 35.5 molar percent HCl added, pH 9.4",20.9 mg/mL
same,precipitation,[2]; maximum concentration of 12 mg/mL,does not result in precipitation
same,SDC-TRAP-0063 Sodium concentration in the solution,[3]; [6],22.9 mg/mL
same,appearance,[3]; [6],Conforms^1
same,SDC-TRAP-0063 Sodium concentration in the solution,[3]; [7],23.4 mg/mL
same,appearance,[3]; [7],Slightly hazy solution
same,SDC-TRAP-0063 Sodium concentration in the solution,[3]; [8],21.4 mg/mL
same,appearance,[3]; [8],Slightly hazy solution
same,SDC-TRAP-0063 Sodium concentration in the solution,[3]; [9],18.6 mg/mL
same,appearance,[3]; [9],Slightly hazy solution
same,appearance,"[3]; 33.1 molar percent HCl added, pH 8.7, after 1 hour",gelation after 1 hour
same,SDC-TRAP-0063 Sodium concentration in the solution,[3]; [10],13.7 mg/mL
same,appearance,[3]; [10],Slightly hazy solution
same,appearance,"[3]; 35.5 molar percent HCl added, pH 8.7, after 1 hour",gelation after 1 hour
same,pH observed for dosing solutions,[4]; 0.9% Sodium chloride,8.6-8.7
same,pH range observed for dosing solutions,[4]; 5% Mannitol,9.4-10.2
same,observed pH for all dosing solutions,"[4]; 5% Mannitol, concentrations from 3-12 mg/mL",≥ 9.4
same,pH,"[5]; 0.9% Sodium Chloride, pH 4.5, 0.6 mg/mL",8.7
same,appearance,"[5]; 0.9% Sodium Chloride, pH 4.5, 0.6 mg/mL, 0 hours",Conforms^1
same,appearance,"[5]; 0.9% Sodium Chloride, pH 4.5, 0.6 mg/mL, 6 hours",Precipitate
same,appearance,"[5]; 0.9% Sodium Chloride, pH 4.5, 0.6 mg/mL, 24 hours",Precipitate
same,pH,"[5]; 0.9% Sodium Chloride, pH 4.5, 2.4 mg/mL",9.4
same,appearance,"[5]; 0.9% Sodium Chloride, pH 4.5, 2.4 mg/mL, 0 hours",Conforms^1
same,appearance,"[5]; 0.9% Sodium Chloride, pH 4.5, 2.4 mg/mL, 6 hours",Precipitate
same,appearance,"[5]; 0.9% Sodium Chloride, pH 4.5, 2.4 mg/mL, 24 hours",Precipitate
same,pH,"[5]; 5% Dextrose, pH 3.2, 0.6 mg/mL",7.5
same,appearance,"[5]; 5% Dextrose, pH 3.2, 0.6 mg/mL, 0 hours",Conforms^1
same,appearance,"[5]; 5% Dextrose, pH 3.2, 0.6 mg/mL, 6 hours",Precipitate
same,appearance,"[5]; 5% Dextrose, pH 3.2, 0.6 mg/mL, 24 hours",Precipitate
same,pH,"[5]; 5% Dextrose, pH 3.2, 2.4 mg/mL",9.1
same,appearance,"[5]; 5% Dextrose, pH 3.2, 2.4 mg/mL, 0 hours",Conforms^1
same,appearance,"[5]; 5% Dextrose, pH 3.2, 2.4 mg/mL, 6 hours",Conforms^1
same,appearance,"[5]; 5% Dextrose, pH 3.2, 2.4 mg/mL, 24 hours",Precipitate
same,pH,"[5]; 5% Mannitol, pH 4.5, 0.6 mg/mL",8.6
same,appearance,"[5]; 5% Mannitol, pH 4.5, 0.6 mg/mL, 0 hours",Conforms^1
same,appearance,"[5]; 5% Mannitol, pH 4.5, 0.6 mg/mL, 6 hours",Precipitate
same,appearance,"[5]; 5% Mannitol, pH 4.5, 0.6 mg/mL, 24 hours",Precipitate
same,pH,"[5]; 5% Mannitol, pH 4.5, 2.4 mg/mL",9.8
same,appearance,"[5]; 5% Mannitol, pH 4.5, 2.4 mg/mL, 0 hours",Conforms^1
same,appearance,"[5]; 5% Mannitol, pH 4.5, 2.4 mg/mL, 6 hours",Conforms^1
same,appearance,"[5]; 5% Mannitol, pH 4.5, 2.4 mg/mL, 24 hours",Conforms^1
